# Data published in ChEMBL document CHEMBL1201862, “PubChem BioAssay data set” (2004).
# Active and inactive are the calls of the source. For most assays here, no stated cut-off is given here; in the data, actives have a measured EC50 and inactives only a lower limit.
# System: H4
# Test: Luminescence Cell-Based Dose Response HTS to Identify Activators of 5'UTR Stem-Loop Driven Prion Protein mRNA Translation in H4 Neuroglioblastoma Cells. [Related pubchem assays: 1829 (Project Summary), 1814 (Primary HTS)]
# Type: functional
# Details: Homo sapiens
row,SMILES,EC50
1,CCC1=NN2C(=N)/C(=C\c3ccc(OCCOc4ccccc4)c(OC)c3)C(=O)N=C2S1,5.43 µM (active)
2,Cc1c(C(=O)OCC(=O)N2C(C)CCCC2C)oc2ccccc12 (stereo not given),72.9 µM (active)
3,O=C1C(/C=N/CCCN2CCCC2=O)=C(O)c2ccccc21,12.9 µM (active)
4,COc1ccc(C(=O)N/N=C/C(=O)c2ccccc2)cc1,6.93 µM (active)
5,CN1CCN(/N=C/c2ccc(Cl)c(Cl)c2)CC1,2.16 µM (active)

# System: INS1
# Test: beta cell apoptosis inhibitors, cytokine rescue, dose response, luminescence, retest (AID 449756);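 further: cell death triggered by IL-1 beta plus TNF-alpha plus IFN-gamma mixture; protective hits raise ATP signal compared with cytokine alone wells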
# Type: functional, cell-based
# Details: Rattus norvegicus
row,SMILES,AC50
1,CC(C)C[C@H]1CN=C(Nc2ccccc2)N1CCC(C)c1ccccc1 (stereo not given in full),9.62 µM (active)
2,CC[C@H](C)Cc1cn([C@@H](CCCCNC(=O)OC(C)(C)C)C(=O)NCCCCCCCCCCC(=O)N2CCN(C(=O)OC(C)(C)C)CC2)nn1,7.02 µM (active)
3,C#CCN(C(=O)c1cc(COc2cccc(C(F)(F)F)c2)on1)C1CCCCC1,> 120 µM (inactive)
4,Cc1ccc2nc(-c3cccc(-c4cccc(Cl)c4)c3)c(NCc3ccccc3)n2c1,7.9 µM (active)
5,CCn1c(=O)c(C(=O)Nc2ccccn2)c(O)c2ccccc21,30.2 µM (active)

# System: not listed separately
# Test: Luminescence Cell-Based Dose Confirmation HTS to Identify Activators of 5'UTR Stem-Loop Driven Alpha-Synuclein mRNA Translation in H4 Neuroglioblastoma Cells. [Related pubchem assays: 1829 (Project Summary), 1814 (Primary HTS)]
# Type: functional
# Details: not given
row,SMILES,EC50
1,Cc1ccccc1-c1nnc(SCc2ccccc2)o1,7.97 µM (active)
2,CCC1=NN2C(=N)/C(=C\c3ccc(OCCOc4ccccc4)c(OC)c3)C(=O)N=C2S1,9.45 µM (active)
3,Cc1c(C(=O)OCC(=O)N2C(C)CCCC2C)oc2ccccc12 (stereo not given),14.6 µM (active)
4,O=C1C(/C=N/CCCN2CCCC2=O)=C(O)c2ccccc21,14.8 µM (active)
5,COc1ccc(C(=O)N/N=C/C(=O)c2ccccc2)cc1,5.67 µM (active)
6,CN1CCN(/N=C/c2ccc(Cl)c(Cl)c2)CC1,34.9 µM (active)

# System: not listed separately
# Test: HEp-2 cell cytotoxicity, dose response, cytotoxicity control for RSV inhibitor project, HTS (AID 2410)
# Type: functional
# Details: human respiratory syncytial virus
row,SMILES,CC50
1,Nc1ncccc1OCc1ccc(Cl)c(Cl)c1,9.61 µM (active)
2,Cc1ccc(/C=C/C2=NN(Cc3ccccc3Cl)C(=O)CC2)cc1,16.6 µM (active)
3,CN1C(=O)C(CC(=O)Nc2ccccc2F)N(NC(=O)c2ccc(Br)cc2)C1=S (stereo not given),6.39 µM (active)

# Target: T1, Rac GTPase-activating protein 1 (Homo sapiens, UniProt Q9H0H5)
# T1 sequence (Q9H0H5 whole entry): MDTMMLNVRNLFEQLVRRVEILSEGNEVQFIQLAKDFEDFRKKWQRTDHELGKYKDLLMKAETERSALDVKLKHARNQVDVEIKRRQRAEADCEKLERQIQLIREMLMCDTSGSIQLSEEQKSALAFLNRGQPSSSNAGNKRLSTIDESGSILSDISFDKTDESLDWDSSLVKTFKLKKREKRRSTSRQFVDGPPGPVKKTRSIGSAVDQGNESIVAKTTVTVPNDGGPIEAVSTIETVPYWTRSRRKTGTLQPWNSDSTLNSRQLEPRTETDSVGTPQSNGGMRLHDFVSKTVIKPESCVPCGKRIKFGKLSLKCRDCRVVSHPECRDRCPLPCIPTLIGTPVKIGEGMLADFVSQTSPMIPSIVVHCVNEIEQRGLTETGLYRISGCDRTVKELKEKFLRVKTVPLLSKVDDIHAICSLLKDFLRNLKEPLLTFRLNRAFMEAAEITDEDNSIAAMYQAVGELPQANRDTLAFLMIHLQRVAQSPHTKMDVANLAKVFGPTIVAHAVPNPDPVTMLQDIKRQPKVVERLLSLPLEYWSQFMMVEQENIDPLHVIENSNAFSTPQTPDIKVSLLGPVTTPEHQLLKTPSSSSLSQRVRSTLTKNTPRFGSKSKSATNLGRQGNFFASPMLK
# Test: MgcRacGAP GTPase-activating activity inhibitors, confirmation, biochemical, ADP Hunter fluorescence, primary and confirmatory (AID 624330)
# Type: functional
# Details: not given
row,SMILES,IC50
1,Cc1cccc2c(N)c3c(nc12)N(C)CC3,115 µM (active)
2,COc1cccc(CNCc2ccco2)c1O,117 µM (active)
3,Oc1ccc(Cc2ccc(Cl)cc2)c(O)c1,69.5 µM (active)
4,N/N=C(\Cc1cscn1)c1ccc(O)cc1O,53.3 µM (active)
5,CCOc1ccccc1/C=c1\sc2ncnn2c1=O,48.7 µM (active)
6,COc1cc(/C=N/NC(=O)CCC(=O)Nc2ccc(F)cc2)ccc1O,35.8 µM (active)
7,C/N=c1\scc(C)n1/N=C/c1cc(Br)c(O)c(Br)c1,77 µM (active)

# System: not listed separately
# Test: Luminescence Cell-Based Dose Response HTS to Identify Activators of Luciferase Translation or Activity in H4 […] Cells. [Related pubchem assays: 1829 (Project Summary), 1814 (Primary HTS)]
# Type: functional
# Details: not given
row,SMILES,EC50
1,Cc1ccccc1-c1nnc(SCc2ccccc2)o1,62.5 µM (active)
2,CCC1=NN2C(=N)/C(=C\c3ccc(OCCOc4ccccc4)c(OC)c3)C(=O)N=C2S1,8.4 µM (active)
3,Cc1c(C(=O)OCC(=O)N2C(C)CCCC2C)oc2ccccc12 (stereo not given),28.7 µM (active)
4,O=C1C(/C=N/CCCN2CCCC2=O)=C(O)c2ccccc21,5.6 µM (active)
5,COc1ccc(C(=O)N/N=C/C(=O)c2ccccc2)cc1,1.9 µM (active)
6,CN1CCN(/N=C/c2ccc(Cl)c(Cl)c2)CC1,31.7 µM (active)

# Target: Luciferin 4-monooxygenase (Photinus pyralis, UniProt P08659)
# Test: firefly luciferase enzyme inhibitors, dose response, biochemical, luminescence (AID 1891)
# Details: not given
# Sequence of Luciferin 4-monooxygenase (P08659 whole entry): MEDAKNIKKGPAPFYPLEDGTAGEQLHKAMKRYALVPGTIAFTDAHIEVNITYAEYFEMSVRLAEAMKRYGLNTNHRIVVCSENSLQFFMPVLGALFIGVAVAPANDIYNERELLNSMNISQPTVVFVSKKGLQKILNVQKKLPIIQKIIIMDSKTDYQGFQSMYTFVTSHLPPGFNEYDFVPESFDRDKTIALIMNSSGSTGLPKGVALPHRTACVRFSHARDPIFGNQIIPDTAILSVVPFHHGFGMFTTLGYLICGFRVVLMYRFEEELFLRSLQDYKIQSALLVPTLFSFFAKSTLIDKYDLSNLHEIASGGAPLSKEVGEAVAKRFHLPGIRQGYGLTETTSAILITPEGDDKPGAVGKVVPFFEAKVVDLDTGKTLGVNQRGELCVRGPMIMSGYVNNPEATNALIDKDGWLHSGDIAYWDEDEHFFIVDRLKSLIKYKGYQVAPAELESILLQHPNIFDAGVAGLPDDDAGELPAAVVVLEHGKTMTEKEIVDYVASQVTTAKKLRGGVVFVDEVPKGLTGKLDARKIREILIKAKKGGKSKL
row,SMILES,EC50
1,N/N=C(\Cc1cscn1)c1ccc(O)cc1O,> 112 µM (not active)

# System: not listed separately
# Test: Luminescence Cell-Based Dose Retest to Confirm Inhibitors of Cancer Stem Cells. [Related pubchem assays (depositor defined):AID2717, AID2721]
# Type: functional
# Details: Homo sapiens
row,SMILES,AC50
1,Cc1ccc2nc(-c3cccc(-c4cccc(Cl)c4)c3)c(NCc3ccccc3)n2c1,4.01 µM (active)

# System: not listed separately
# Test: Luminescence Cell-Based Dose Confirmation HTS to Identify Inhibitors of Platelet Dense Granule Release. [Related pubchem assays: 1663 (Primary HTS), 1678 (Summary of Project)]
# Type: functional
# Details: not given
row,SMILES,EC50
1,N/N=C(\Cc1cscn1)c1ccc(O)cc1O,62.6 µM (active)
